Experimental data: patent US20110105380A1, “Protection of Nano-Scale Particles from Immune Cell Uptake” (THE TRUSTEES OF THE UNIVERSITY OF PENNSYLVANIA, priority 2009, published 2011)
Several values for one entry are separate records, joined by “and”; a condition that tells them apart may be missing. Equal entries are not always repeated. Marks after values point to notes of the source that are not given here. Values belong to the molecule of their own block, whether it stands above or below them.

Experiments:
THP-1 macrophages [1] = experiment: SHP-1 inhibitor effect on phagocytosis of IgG-opsonized particles by THP-1 macrophages; format: cell-based, human
Protocol: FIG. 16, comprising FIG. 16A-16D, illustrates CD47-SIRPα signaling pathway from SHP-1 to myosin. Phagocytosis of IgG-opsonized particles with or without human CD47 of 100 nm particles (FIG. 16A) and 1.1 μm particles (FIG. 16B) were treated with an SHP-1 inhibitor (NSC-87877) at 62.5 nM and its effects were determined by the ratio of ingested particles per THP-1 phagocyte. The number of particles ingested was shown based on 200 phagocytes counted (n≧3, ±SD). The inset depicts the concentration dependence of NSC-87877 effect on particle uptake. Treatment of blebbistatin in THP-1 macrophages during phagocytosis of IgG-opsonized 100 nm particles (FIG. 16C) and 1.1 μm particles (FIG. 16D) depict inhibition of phagocytosis.
For phagocytosis assays with CD47 attached particles at 100 nm to 1.1 μm diameter were IgG-opsonized. THP-1 macrophage, PMA activated were treated with 0-0.5 μM NSC-87877 an SHP-1 Inhibitor (gift from Frank L. Conlon) 5 minutes prior to the addition of IgG-opsonized particles. Phagocytosis assay occurred at 37° C. for 45 minutes and then fixed for 5 minutes with 5% formaldehyde as described for the phagocytosis assay (Fisher Scientific).
To confirm the correlation between CD47 affect on inhibiting phagocytosis of both nano and micro sized particles, blocked SHP-1 should result in nullifying the CD47 signal. In order to specifically block SHP-1, an inhibitor NSC-87877 was used with a reported high specificity to SHP-1 (Chen et al., 2006, Mol. Pharmacol. 70(2):562-70; Langdon et al., 2007, Development 134(22):4119-30). […] The uptake of these particles was measured as the number of particles ingested per phagocyte.

SHP-1 = SHP-1 (Homo sapiens, UniProt P29350); conditions: Chen et al., 2006; read-out: reported IC50 for SHP-1; cited from earlier work
[2] = biological target: human CD47 on human red blood cells (human) (UniProt Q08722); experiment: cell-based or functional assay
THP-1 macrophages [3] = experiment: Phagocytosis of IgG-opsonized streptavidin beads with or without hCD47 by THP-1 macrophages; format: cell-based, human; conditions: for Ki (minimum hCD47 density to inhibit uptake): IgG-opsonized
Protocol: (§1) The extracellular immunoglobulin-like domains of human CD47 (hCD47) was recombinantly expressed with a spacer domain (Brown et al., 1994, Protein Eng. 7:515-21; Brown et al., 1998, J. Exp. Med. 188:2083-90) plus a C-terminal biotinylation site. […] The beads were opsonized by pretreatment with anti-streptavidin to again induce FcR-mediated phagocytosis (for 45 minutes at 37° C.), and non-engulfed beads were detected with a flourescein anti-Fc against the IgG-opsonin. The number of adherent IgG-opsonized beads per phagocyte was independent of hCD47 (not shown).
For phagocytosis assays, macrophages were plated in 4 cm^2, or 2 cm^2 Lab-Tek II Chambered Coverglass (Nalge Nunc International, Naperville, Ill.) at 1.5×10^5/cm^2. Streptavidin polystyrene beads of different radius: 3.5 μm, 1.1 μm, 160 nm (Spherotech) and 100 nm (Ademtech) were added to macrophages at a ratio of 2:1, 20:1, 277:1, and 2206:1 respectively and incubate at 37° C. for 45 min. […] Non-phagocytosed beads were washed with PBS. Cells were fixed with 5% formaldehyde (Fisher Scientific) for 5 minutes, followed by immediate replacement with PBS. For differentiation of non-internalized beads, beads were labeled with a primary antibody, rabbit anti-streptavidin (Sigma) at 1:1000 in PBS for 20 min at 25° C. A second antibody, anti-rabbit R-PE (Sigma) was added at 1:1000 in PBS to the cells and incubated for an additional 20 minutes at 25° C. Cells were then washed with PBS/0.4% BSA and then quantified by light and fluorescent microscopy. At least 200 cells were scored per well and experiments were repeated at least three times.
For stimulated phagocytosis assays, beads with or without CD47 were incubated with rabbit anti-streptavidin as the IgG opsonin. Beads were opsonized at a concentration 1:1000 for 30 min at 25° C. Opsonized beads were washed 2× and resuspended in 50 μl of PBS/0.4% BSA. Phagocytes were washed with PBS and uningested beads were labeled as described above.
For cytoskeletal involvement at the phagocytic synapse, streptavidin beads opsonized with rabbit anti-streptavidin FITC. Opsonized beads of different sizes were added to THP-1 cells, PMA treated and immediately placed at 4° C. for 10 min to synchronize phagocytosis. […] For studies involving blebbistatin (EMD Biosciences), macrophages were treated for 10 min at 4° C. prior to temperature increase to 37° C. or for 45 min and 37° C. Macrophages treated with DMSO were used to verify no solvent effects.
Beads were opsonized at saturating densities of IgG, and over a 20-fold range of CD47 densities, the number of internalized beads per THP-1 was measured. […] The normal level of CD47 density found on human RBC (Subramanian et al., 2006, Blood 107(6):2548-2556) was indicated by the vertical bars and humans with certain Rhnull phenotypes with reduced levels of CD47 (Mouro-Chanteloup et al., 2003, Blood 101 (1):338-344; Arndt et al., 2004, Br. J. Haematol. 125(3):412-4) was indicated by the vertical bars. The minimum number of CD47 inhibition appears to be consistent across a 30-fold particle size range as depicted by the vertical bars.

[4] = system: human peripheral blood monocytes; experiment: Phagocytosis of hCD47 beads by human peripheral blood monocytes; format: cell-based; conditions: FIG. 6D
Protocol: FIG. 6, comprising […], illustrates that human-CD47 is sufficient to inhibit phagocytosis. FIG. 6A depicts streptavidin beads coated with both anti-streptavidin IgG as the opsonin and biotinylated human-CD47. Phagocytosis of beads by THP-1 cells was assessed in DIC and fluorescence with non-ingested beads visible with rabbit anti-streptavidin plus a second, goat anti-rabbit antibody. The scale bars are 10 μm. […] Inset bar graph compares to inhibited phagocytosis of uncoated beads after 10 min pretreatment of THP-1 cells with blebbistatin (50 μM). FIG. 6C depicts inhibition of phagocytosis depends on density of human-CD47 on beads. FIG. 6D depicts a bar graph comparing hCD47 inhibition of phagocytosis in peripheral blood monocytes.
as §1, with “shown). […]” for “shown).”

THP-1 macrophages [5] = experiment: Phagocytosis of IgG-opsonized streptavidin beads with or without hCD47 by THP-1 macrophages; format: cell-based, human; conditions: particle radius 3.4 μm
[6] = 100 nm particles, NSC-87877 62.5 nM

Chain of human CD47 on human red blood cells (human) (Q08722 other isoform, or with tags, fused parts or gaps limits assumed): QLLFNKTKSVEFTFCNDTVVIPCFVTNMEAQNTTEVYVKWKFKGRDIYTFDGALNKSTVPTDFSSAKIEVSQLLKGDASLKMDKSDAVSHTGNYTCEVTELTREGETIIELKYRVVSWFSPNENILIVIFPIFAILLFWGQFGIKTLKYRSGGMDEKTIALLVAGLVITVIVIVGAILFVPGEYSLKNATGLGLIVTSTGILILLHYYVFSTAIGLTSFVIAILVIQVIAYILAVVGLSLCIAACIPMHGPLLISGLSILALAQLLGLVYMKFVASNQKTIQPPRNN
Chain of SHP-1 (P29350 whole entry): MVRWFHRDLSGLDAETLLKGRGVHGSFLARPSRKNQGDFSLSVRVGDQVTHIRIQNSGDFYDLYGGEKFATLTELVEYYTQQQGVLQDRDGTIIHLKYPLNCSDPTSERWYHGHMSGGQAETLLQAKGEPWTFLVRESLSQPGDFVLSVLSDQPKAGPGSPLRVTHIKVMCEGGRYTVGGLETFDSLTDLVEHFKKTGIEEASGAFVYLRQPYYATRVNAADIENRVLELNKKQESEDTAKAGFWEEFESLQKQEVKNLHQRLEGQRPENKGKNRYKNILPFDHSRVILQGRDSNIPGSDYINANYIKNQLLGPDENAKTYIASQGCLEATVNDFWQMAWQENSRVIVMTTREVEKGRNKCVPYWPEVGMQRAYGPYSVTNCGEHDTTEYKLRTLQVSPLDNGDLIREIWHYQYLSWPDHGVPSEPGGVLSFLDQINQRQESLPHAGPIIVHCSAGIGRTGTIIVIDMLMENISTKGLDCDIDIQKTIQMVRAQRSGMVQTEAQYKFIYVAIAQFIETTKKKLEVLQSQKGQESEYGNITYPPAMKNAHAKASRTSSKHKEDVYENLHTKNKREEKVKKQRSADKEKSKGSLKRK

Molecule: O=S(=O)(O)c1ccc2cc(N=Nc3cc(S(=O)(=O)O)c4cccnc4c3O)ccc2c1 [NSC-87877]
particles ingested per phagocyte, beads without hCD47 (THP-1 macrophages [1]; [6]): no statistical difference
particles ingested per phagocyte, hCD47 particles (THP-1 macrophages [1]; [6]): an increase of ingested particles
uptake of 1.1 μm particles coated with hCD47 (THP-1 macrophages [1]; NSC-87877, FIG. 16B): increase in uptake comparable to uncoated IgG-opsonized particles
IC50 (SHP-1): 0.5 µM

phagocytosis of IgG-opsonized human RBCs by human phagocytes after CD47 blocking [2]: 2 fold and 3 fold
Molecule: anti-CD47 F(ab')2 generated from monoclonal antibody B6H12

effective Ki of phagocytosis inhibition (THP-1 macrophages [3]; all particle sizes tested, micro to nano-meter beads (100 nm to 3.5 μm)): approximately 20 molecules/μm^2
effective Ki of phagocytosis inhibition (THP-1 macrophages [3]; all particle sizes tested, micro to nano-meter beads (100 nm to 3.5 μm), listed as human CD47): ~20 molecules/μm^2
effective Ki of phagocytosis inhibition (THP-1 macrophages [3]; approximately 2.1 μm beads, FIG. 6C): ≈ 20 molecules/μm^2
Ki at high opsonin (THP-1 macrophages [3]; beads opsonized at saturating densities of IgG): 20 CD47/μm^2
Ki (minimum hCD47 density to inhibit uptake) (THP-1 macrophages [3]; particle radius 1.1 μm): 20* molecules/μm^2
Ki (minimum hCD47 density to inhibit uptake) (THP-1 macrophages [3]; particle radius 100 nm): 19.9 molecules/μm^2
Ki (minimum hCD47 density to inhibit uptake) (THP-1 macrophages [3]; particle radius 160 nm): 13.6 molecules/μm^2
Ki (minimum hCD47 density to inhibit uptake) (THP-1 macrophages [5]): 27.6 molecules/μm^2
Molecule: hCD47: extracellular immunoglobulin-like domains of human CD47 recombinantly expressed with a spacer domain plus C-terminal biotinylation site, attached to streptavidin-coated beads
fraction of normal CD47 densities sufficient to inhibit phagocytosis (THP-1 macrophages [3]; relative to normal human RBC density): 10-20%
phagocytosis of beads bearing high densities of hCD47 [4]: similarly potent reduction in phagocytosis
